Tests used:
UM-UC-14 cells = assay: ligand release by UV fluorescence microscopy; assay type: cell-based, human; conditions: 10 μM, 24 h, UM-UC-14, fluorescence microscopy
Description: The enhanced stability of Co(acac)2LPon under normoxia and its hypoxia-induced ligand release was subsequently confirmed by fluorescence microscopy. Fluorescence intensities indicated a ∼2.8-fold decreased stability of the cobalt(III) complex under hypoxic vs. normoxic cell culture conditions.
UM-UC-14 cells were seeded (2.5 × 10^5 cells per well) in 12-well plates and after 24 h recovery treated with 10 μM of compounds. After 24 h incubation, the drug solutions were removed, cells were washed with PBS and microphotographs of the different treatments were taken using UV fluorescence microscopy (Nikon Eclipse Ti2 microscope with a DAPI filter and a high-pressure mercury lamp) and a 20× objective. The level of cellular fluorescence was determined from fluorescence microscopy images using ImageJ software.
Figure S9: Ligand release of Co(acac)2LPon under normoxic and hypoxic cell culture conditions in comparison to LPon using UV fluorescence microscopy. UM-UC-14 cells were incubated with 10 µM of compounds for 24 h. Images of the different treatments were taken by UV fluorescence microcopy (20X objective) and the corrected total cell fluorescence was evaluated using ImageJ software. Data in Figure S9B are given as means ± SD of ten analyzed microphotographs per compound. Statistical significance was calculated by unpaired t test with p < .05(*). […]

cyclic voltammetry = assay type: physicochemical; conditions: DMF, 0.2 M [n-Bu4N][BF4], 1.5 mM complex, scan rate 100 mV s^-1
Description: Since the redox potential is a crucial characteristic for the activation of cobalt(III)-based prodrugs systems, we investigated the novel complexes by cyclic voltammetry in comparison to Co(acac)2LEGFR. Measurements were performed in dimethylformamide (DMF) (+0.2 M [n-Bu4N][BF4]) at a scan speed of 100 mV s^−1. […] Even at a higher scan speed of 1000 mV s^−1, the redox processes were still completely irreversible for all complexes (Fig. S5 ^†).
The compounds were dissolved in DMF (+0.2 M [n-Bu4N][BF4]) to obtain a final concentration of 1.5 mM. Electrochemical experiments were conducted on an EG&G PARC 273A potentiostat/galvanostat with a scan rate of 100–1000 mV s^−1 at room temperature. Argon was bubbled through the solution before every measurement to remove oxygen. A three-electrode configuration cell was used with a glassy carbon electrode as working electrode, which was polished before every measurement. The reference electrode was Ag/Ag^+/ACN (10 mM AgNO3) and the auxiliary electrode was a platinum wire. The potentials were referenced to an internal standard redox couple of ferrocenium/ferrocene and calculated to the NHE (E1/2 = +0.72 V vs. NHE).[63] […] Redox potentials measured relative to the Ag/AgCl/KCl (3.5 M) reference electrode and converted to the NHE using +0.205 V. Measurements were at least repeated three times and the mean values were calculated.

CC(=O)C=C(C)[O-].CC(=O)C=C(C)[O-].Cc1ccc(C(=O)Nc2ccc(CNCCN)c(C(F)(F)F)c2)cc1C#Cc1cnc2cccnn12.O=C(O)C(F)(F)F.[Co+3] [Co(acac)2LPon, Bis(2,4-pentanedionato)N-(4-(((2-aminoethyl)amino)methyl)-3-(trifluoromethyl)phenyl)-3-(imidazo[1,2-b]pyridazin-3-ylethynyl)-4-methylbenzamide cobalt(III) 2,2,2-trifluoroacetate]
fluorescence intensity change (decreased stability) hypoxic vs. normoxic (UM-UC-14 cells): ~2.8 fold
cathodic peak potential (Co(III) to Co(II), irreversible) (cyclic voltammetry): −315 mV vs. NHE
